Results as given in patent US7179446B2, “Simultaneous imaging of cardiac perfusion and a vitronectin receptor targeted imaging agent” (Bristol-Myers Squibb Pharma Company, priority 2000, dated 2007).

System: areas of endothelial damage, vulnerable plaque or angiogenesis in the heart
Test: Simultaneous imaging of In-111 labeled vitronectin antagonist compound and Tc99m cardiac perfusion agent (Example 67)
Assay type: in vivo
Settings: human, 10–40 mCi, approximately 0.5 to 6 hours following injection
Procedure: The compound of Examples 54, 55 or 56 is administered to a human at a level of ˜1–10 mCi of ^111In before, together with, or after the adminstration of a ^99mTc cardiac perfusion imaging agent (e.g. 10–40 mCi of ^99mTc-Sestamibi). […] The simultaneous imaging of the In-111 labeled vitronectin antagonist compound and the Tc99m cardiac perfusion agent is carried out by a method such as that reported by White (White, S A, Mueller, D H, Smith H E, et al. J Nucl Med Tech 1984, 12: 124–125) or Hillel (Hillel P G, Tindale W B, Taylor C J, et al. Nucl Med Conmun 1998, 19, 761–769).

[C-]#[N+]CC(C)(C)OC.[C-]#[N+]CC(C)(C)OC.[C-]#[N+]CC(C)(C)OC.[C-]#[N+]CC(C)(C)OC.[C-]#[N+]CC(C)(C)OC.[C-]#[N+]CC(C)(C)OC.[Tc] [^99mTc-Sestamibi, hexakis methoxyisobutyl isonitrile Technetium(I)]
distribution of the ^99mTc perfusion agent: distributed in the myocardium in relation to regional myocardial blood flow
